Source: patent publication US20040102422A1, “Cancer therapy” (The University of Bristol, priority 2001, published 2004)

Columns and labels:
[1] = tested on: HeLa cells; assay: Apoptosis of HeLa cells transiently transfected with pWEB-E2 (HPV 16 E2) or empty pWEB, scored by GFP and Hoechst stain; assay type: cell-based
Procedure: (§1) In all of the following experiments, HeLa cells were maintained in Minimal Essential Medium (MEM: Sigma) supplemented with 10% Foetal Bovine Serum (FBS: Sigma) and penicillin (100,000 U/litre) and streptomycin (100 mg/litre) at 37° C. in 5% CO2. In some cases, supplements (all obtained from Sigma, with the exception of 3-hydroxytamoxifen which was obtained from Research Biochemicals International (RBI)) were added to the media at the concentrations specifically indicated for each separate experiment.
Prior to transient transfection, cells were seeded at 3×10^5 cells per well onto coverslips in 6 well plates and incubated overnight to obtain a sub-confluent culture. The liposome based reagent Tfx-20 (Promega) was used at a 3:1 liposome:DNA ratio in 1 ml serum-free media per transfection, according to the manufacturer's instructions. After 30 hours, the coverslips were washed in phosphate buffered saline (PBS) and the cells fixed in 4% paraformaldehyde/PBS at 22° C. for 30 minutes. Following further washes in PBS, the cells were stained with bisbenzimide (Hoechst No. 33258: Sigma) for 30 minutes. Finally the coverslips were washed in PBS and mounted onto microscope slides in 10 μl MOWIOL (Calbiochem).
Where used, fluorescence microscopy was carried out using a Leica DM IRBE inverted epi-fluorescent microscope with FITC and DAPI filter sets and a 20× air objective (Leica).
The plasmid pWEB-E2 expresses the HPV 16 E2 protein (Webster, K. et al., (2000) supra). Increasing amounts of pWEB-E2 and the empty pWEB vector were transiently transfected into HeLa cells, an HPV 18-transformed cell cervical carcinoma cell line, along with a plasmid (pCMX-GFP3- supplied by Dr Jeremy Tavaré of the Department of Biochemistry, University of Bristol, UK) that expresses the green fluorescent protein (GFP). After 30 hours the cells were fixed and then stained with bisbenzimide (Hoechst stain). Individual cells were scored as untransfected or transfected on the basis of GFP expression and then examined for chromatin condensation and membrane blebbing using Hoechst stain and GFP, respectively (Webster, K. et al., (2000) spra). 100 transfected cells were counted and the experiment was repeated four times.

[2] = tested on: HeLa cells; assay: MTT assay of HeLa cell viability / proliferation; assay type: cell-based; settings: for cell proliferation (number of viable cells, MTT): HeLa cultured in media containing the single agent, read at 24 hour intervals, FIG. 1(d), 1(e)
Procedure: as §1
Where MTT assays were carried out, this involved removal of the media, followed by incubation of the cells in 50 μg/ml MTT (3-(4,5 dimethylthiazol 2-yl) 2,5 diphenyl tetrazolium bromide) for 2 hours at 37° C. The blue formazan crystals were extracted and dissolved in DMSO (dimethylsulfoxide), and the absorbance measured at 560 nm wavelength using an ELISA plate reader (Mosmann, T. (1983) Journal of Immunological Methods 65, 55-631983).
To examine the effects of RU486 and progesterone on cell proliferation, HeLa cells were cultured in media containing RU486 and/or progesterone and at 24 hour intervals the number of viable cells was determined using MTT assays (Mosmann, T. (1983) supra). […] The presence of RU486 has little effect on cell proliferation (FIG. 1(e)).

CC/C(=C(/c1ccc(OCCN(C)C)cc1)c1cccc(O)c1)c1ccccc1 [3-OHT, 3-hydroxytamoxifen]
percentage of apoptotic cells in the pWEB-transfected population ([1]; empty vector pWEB, presence of estrogen and 3-OHT, FIG. 2(c)): around 5%
percentage of apoptotic cells ([1]; pWEB-E2 transfected HeLa, 400 nM estrogen plus 400 nM 3-OHT, FIG. 2(c)): around 10%
proliferation of HeLa cells (MTT) ([2]; 3-OHT alone or 3-OHT with estrogen, over time, FIG. 2(e), 2(f)): no effect

C[C@]12CC[C@@H]3c4ccc(O)cc4CC[C@H]3[C@@H]1C[C@@H](O)C2=O [16α-hydroxyestrone]
level of E2-induced apoptosis ([1]; pWEB-E2 transfected HeLa incubated 24 hours in media with various concentrations of the hormone, FIG. 2(a), 2(b)): increases the level of E2-induced apoptosis

CC#C[C@]1(O)CC[C@H]2[C@@H]3CCC4=CC(=O)CCC4=C3[C@@H](c3ccc(N(C)C)cc3)C[C@@]21C [RU486, Mifepristone]
levels of apoptosis ([1]; 2 μM progesterone plus 100 nM and 200 nM RU486, compared with 50 nM RU486, FIG. 1(c)): raised compared to those at 50 nM RU486
level of E2-induced apoptosis ([1]; pWEB-E2 transfected HeLa, 2 μM progesterone plus 50 nM RU486, FIG. 1(c)): reduced almost to the background levels
level of apoptosis in the untransfected cells ([1]; progesterone plus 200 nM RU486, FIG. 1(c)): slight increase
cell proliferation (number of viable cells, MTT) [2]: little effect

CC(=O)[C@H]1CC[C@H]2[C@@H]3CCC4=CC(=O)CC[C@]4(C)[C@H]3CC[C@]12C [progesterone]
levels of E2-induced apoptosis ([1]; HeLa cultured in 2 μM progesterone for one week prior to transfection with pWEB-E2, FIG. 1(b)): significant increase
level of apoptosis in E2 expression plasmid transfected population ([1]; HeLa cultured in 2 μM progesterone one week before transfection and incubated in 2 μM progesterone, no RU486, FIG. 1(c)): high levels of apoptosis
level of apoptosis in cells transfected with the empty pWEB vector ([1]; HeLa cultured in progesterone for one week prior to transfection with pWEB, FIG. 1(b)): around 7%
cell proliferation (number of viable cells, MTT) [2]: decrease in cell proliferation
